This note sets out measurements from article PMC7230911, “Meroterpenoids from the Brown Alga Cystoseira usneoides as Potential Anti-Inflammatory and Lung Anticancer Agents” (Marine Drugs, 2020).

The subject of data set [1] is THP-1 macrophages. As to the kind of experiment: Cell viability of THP-1 macrophages (SRB assay). It counts as cell-based, human. To be noted: LPS-stimulated THP-1 macrophages, 0–100 µg/mL, 48 and 72 h, data not shown. The method, then:
The cytotoxic effect of AMTs 1–8 on LPS-stimulated THP-1 macrophages was determined at different concentrations and incubation times (0–100 µg/mL, 48 and 72 h) using the SRB assay. […] Therefore, in order to rule out cytotoxic effects, compounds 1, 2, 3, 4, 7, and 8 were tested on THP-1 cells at maximum concentration of 8 µg/mL while 5 and 6 were tested at maximum concentration of 4 µg/mL. The viability of THP-1 cells was measured by the SRB assay. The cells were seeded in 96-well plates with the growth medium at a density of 1 × 10^4 cells per well, and differentiation into macrophages was induced by 0.2 μM of phorbol myristate acetate (PMA). Three days after differentiation into macrophages, the cells were treated with various concentrations (0, 3.125, 6.25, 12.5, 25, 50, 100 µg/mL) of the AMTs 1–8 in fresh medium and incubated for another 72 h. Then, the cells were fixed with 50 μL of TCA (50%) and processed, as described in the literature.
For orientation: The SRB assay estimates cell density from bound dye.

Data set [2] has as its system TNF-α. Kind of data set: TNF-α production in LPS-stimulated THP-1 macrophages (ELISA). Type of data set: cell-based. To be noted: Homo sapiens, 1 h pretreatment, then LPS 1 μg/mL 24 h; for inhibition at 8 µg/mL: 8 μg/mL; for inhibition at 4 µg/mL: 4 μg/mL. The protocol: (§1) To determine the effects of the AMTs 1–8 on the production of TNF-α, IL-6, and IL-1β, THP-1 macrophaghes were pretreated with the compounds and then stimulated with LPS, as the triggering factor to stimulate the cytokines production. The levels of pro-inflammatory cytokines in the cell supernatants were determined using the enzyme-linked immunosorbent (ELISA) kits.
(§2) Figure 2 Meroterpenoids 1–8 inhibit LPS-induced expression of TNF-α, IL-6, and IL-1β in THP-1 macrophages (A, B, and C) respectively. Cells were pretreated for 1 h with the compounds (1, 2, 3, 4, 7, and 8 at 8 μg/mL; 5 and 6 at 4 μg/mL), followed by 24 h treatment with LPS. TNF-α (A), IL-6 (B) and IL-1β (C) contents in the culture medium were determined by ELISA. Dexametasone (DEX) was used as positive control. Data are expressed as means ± SE from three independent experiments. Statistical significance is indicated (+++p < 0.001 and +++< 0.01 vs. Control; respectively * p < 0.05, ** p < 0.01, *** p < 0.001 vs. Control + LPS).
(§3) THP-1 cells were plated at a density of 3 × 10^5 cells/mL in 24-well plates and incubated with PMA (0.2 μM) for 72 h in a humidified atmosphere of 5% CO2 at 37 °C. The macrophages were pre-treated for 1 h with AMTs 1–8 (8 μg/mL for compounds 1, 2, 3, 4, 7, and 8, and 4 μg/mL for 5 and 6) and then stimulated with lipopolysaccharide (LPS, 1 μg/mL) for another 24 h. Dexamethasone (Dex) was used as positive reference compound at 1 μM. The viability of cells was greater than 95% throughout the experiment. The levels of TNF-α, IL-6, and IL-1ß in supernatants were measured with enzyme-linked immune-sorbent assay (ELISA) kits (Diaclone GEN-PROBE, Besançon cedex, France) according to the manufacturer’s protocols. The absorbance was determined at 450 nm using a microplate reader. To calculate the concentration of cytokines, a standard curve was constructed using serial dilutions of cytokine standards provided with the kit.
(In general: In an ELISA, binding on a coated surface is turned into a signal by an enzyme label.)

Data set [3] relates to IL-6. Kind of data set: IL-6 production in LPS-stimulated THP-1 macrophages (ELISA). It counts as cell-based. The conditions noted are these: Homo sapiens, 1 h pretreatment, then LPS 1 μg/mL 24 h; for inhibition at 8 µg/mL: 8 μg/mL; for inhibition at 4 µg/mL: 4 μg/mL. The protocol: as §1, §2, §3
Data set [4] has as its system IL-1β. As to the kind of experiment: IL-1β production in LPS-stimulated THP-1 macrophages (ELISA). Type of data set: cell-based. To be noted: Homo sapiens, 1 h pretreatment, then LPS 1 μg/mL 24 h; for inhibition at 8 µg/mL: 8 μg/mL; for inhibition at 4 µg/mL: 4 μg/mL. The protocol: as §1, §2, §3
Data set [5] concerns human lung adenocarcinoma A549 cells. Kind of data set: Cytotoxicity against lung cancer cells A549 (MTT assay). It counts as cell-based. The conditions noted are these: for IC50 / viability at 50 µg/mL: Homo sapiens, A549, MTT; for IC50: 72 h of treatment, mean ± SE; for Selectivity Index SI: SI = IC50 value for normal cells (MRC-5)/IC50 value for cancer cells (A549); for viability at 50 µg/mL: 50 μg/mL, 72 h, read-out: cell viability of cancer cells. The protocol:
(§4) The effect of the AMTs 1–8 on cell viability was investigated in the human lung cancer cell line A549. […] It has been reported that compounds with SI value higher or equal to 2.0 are potentially selective. […] It is worth noting that after treatment with 50 μg/mL of these two AMTs, the cell viability was lower than 15% for cancer cells and higher than 55% for normal cells.
(§5) Figure 4 Effects of different concentrations of meroterpenoids 1–8 on the viability of human lung cancer cell line A549 and the human fetal lung fibroblastic MRC-5 cells, using MTT assay after 72 h of treatment. Data are mean ±SE of three independent experiments. * p < 0.05, ** p < 0.01 and […] between the two cell lines.
(§6) Cell proliferation was evaluated by a modified MTT assay, which measures the mitochondrial dehydrogenase activity. A total of 5 × 10^3 cells/well (MRC-5 cells) and 3 × 10^3 cells/well (A549 cells) were cultured in a 96-well plate for 24 h. Then, treatments were added to the cell culture. After 72 h of incubation, the medium was removed and 125 µL of MTT (1 mg/mL in medium) was added to each well and incubated for 4 h. Next, 80 µL of 20% sodium dodecyl sulphate (SDS) was added and incubated for 5 h at 37 °C. The optical density of each well was measured at 540 nm (Synergy HT multiwell plate spectrophotometer reader, BioTek Instruments Inc., Winooski, VT, USA) to quantify cell viability. Cell viability (%) was calculated according to the following formula: % viability = (absorbance of compounds treated cells/absorbance of control cells) × 100. The degree of selectivity of the compounds was expressed by its SI value. Each SI value was calculated using the formula: SI = IC50 normal cell/IC50 cancer cell.
(In general: Tetrazolium assays rely on reduction of a dye to a coloured formazan, in cell work by metabolically active cells.)

For data set [6], the system named is human fetal lung fibroblastic MRC-5 cells. As to the kind of experiment: Cytotoxicity against normal lung cells MRC-5 (MTT assay). The conditions noted are these: Homo sapiens, MRC5, 72 h of treatment, mean ± SE. It counts as cell-based. The protocol: as §4, §5, §6

On to `COc1c(C)cc(O)cc1C/C=C(\C)CC(=O)/C=C(/C)CCCC(C)(O)C(=O)/C=C/C(C)(C)O` (stereo not drawn) [Compound 1, usneoidone Z], for which the “concentration up to which cell viability is not affected” value in data set [1] is listed as “up to 10 µg/mL”. Besides, the inhibition at 8 µg/mL in data set [2] was 73.1%; in data set [3], 71.2%; in data set [4], 74.6%. Also, the IC50 in data set [5] stood at 8.68 ± 0.15 µg/mL; in data set [6], 10.6 ± 0.5 µg/mL. Also, the “Selectivity Index SI” value in data set [5] worked out at 1.22.

Regarding `COc1c(C)cc(O)cc1C/C=C(\C)CC(=O)/C=C(\C)CCCC(C)(O)C(=O)/C=C/C(C)(C)O` (stereo not drawn) [Compound 2, 11-hydroxy-1’-O-methylamentadione], the “concentration up to which cell viability is not affected” value in data set [1] was “up to 10 µg/mL”. For the same compound, the results for the inhibition at 8 µg/mL in data set [2], in data set [3] and in data set [4] were 64.1%, 80.8% and 84.4%, respectively. Moreover, the IC50 in data set [5] turned out to be 6.61 ± 0.38 µg/mL; in data set [6], 8.65 ± 0.18 µg/mL. Moreover, the “Selectivity Index SI” value in data set [5] was found to be 1.30.

On to `COc1c(C)cc(O)cc1C/C=C(\C)CC(=O)/C=C(\C)CCCC(C)=O` [Compound 3, cystomexicone B], for which the “concentration up to which cell viability is not affected” value in data set [1] was “up to 10 µg/mL”. Besides, the inhibition at 8 µg/mL in data set [2] was 57.1%; in data set [3], 69.2%; in data set [4] it was 35.3%. The viability at 50 µg/mL in data set [5] is less than 15%. Besides, the IC50 came out at 24.4 ± 1.71 µg/mL in data set [5] and 51.9 ± 2.76 µg/mL in data set [6]. Also, the “Selectivity Index SI” value in data set [5] is 2.12.

With `COc1c(C)cc(O)cc1C/C=C(\C)CC(=O)/C=C(/C)CCCC(C)=O` [Compound 4, cystomexicone A], in data set [1], the “concentration up to which cell viability is not affected” value is on record as “up to 10 µg/mL”. Besides, the inhibition at 8 µg/mL in data set [2] lay within 42.2 to 43.3%. The inhibition at 8 µg/mL in data set [3] was 43%. In data set [5], the viability at 50 µg/mL was less than 15%, the IC50 came to 21 ± 1.79 µg/mL and the “Selectivity Index SI” value was determined as 2.78. The IC50 in data set [6] was 58.4 ± 3.3 µg/mL.

On to `COc1c(C)cc(O)cc1C/C=C(\C)CC(=O)/C=C(/C)CCCC(C)C(=O)/C=C/C(C)(C)O` (stereo not drawn) [Compound 5, 6-cis-amentadione-1′-methyl ether], for which, in data set [1], the “concentration up to which cell viability is not affected” value is reported as “up to 6 µg/mL”. For the same compound, the inhibition at 4 µg/mL in data set [2] turned out to be 55.3%; in data set [3], 67.8%; in data set [4], 86%. The figures for the IC50 in data set [5] and in data set [6] were 4.56 ± 0.21 µg/mL and 8.39 ± 0.14 µg/mL, respectively. Further, the “Selectivity Index SI” value in data set [5] was determined as 1.83.

With `COc1c(C)cc(O)cc1C/C=C(\C)CC(=O)/C=C(\C)CCCC(C)C(=O)/C=C/C(C)(C)O` (stereo not drawn) [Compound 6, amentadione-1′-methyl ether], the “concentration up to which cell viability is not affected” value in data set [1] was “up to 6 µg/mL”. Further, the inhibition at 4 µg/mL in data set [2] was 42.2 to 43.3%; in data set [3] it was 50.9%; in data set [4] it was 61.1%. The figures for the IC50 in data set [5] and in data set [6] were 6.19 ± 0.25 µg/mL and 8.87 ± 0.05 µg/mL, respectively. Besides, the “Selectivity Index SI” value in data set [5] is on record as 1.43.

For the compound `COc1c(C)cc(O)cc1/C=C/C(C)(O)CC(=O)/C=C(/C)CCCC(C)C(=O)/C=C/C(C)(C)O` (stereo not drawn) [Compound 7, cystodione A], the “concentration up to which cell viability is not affected” value in data set [1] is “up to 10 µg/mL”. Also, the figures for the inhibition at 8 µg/mL in data set [2], in data set [3] and in data set [4] were 42.2 to 43.3%, 49.6% and 44.9%, respectively. For the same compound, the IC50 in data set [5] was determined as 9.31 ± 0.33 µg/mL; in data set [6], 14.5 ± 1.14 µg/mL. For the same compound, the “Selectivity Index SI” value in data set [5] is 1.55.

On to `COc1c(C)cc(O)cc1/C=C/C(C)(O)CC(=O)/C=C(\C)CCCC(C)C(=O)/C=C/C(C)(C)O` (stereo not drawn) [Compound 8, cystodione B], for which the “concentration up to which cell viability is not affected” value in data set [1] is recorded as “up to 10 µg/mL”. Further, the inhibition at 8 µg/mL in data set [2] is 52.6%; in data set [3] it was 58.9%; in data set [4], 44.6%. For the same compound, the half-inhibitory concentration (IC50) in data set [5] came to 13.6 ± 0.55 µg/mL; in data set [6], 17.83 ± 0.09 µg/mL. Moreover, the “Selectivity Index SI” value in data set [5] worked out at 1.28.

A word on the inhibition: it is the share of the control response that was lost under treatment. Broadly, the IC50 is the point on the concentration scale where inhibition reaches its midpoint. Broadly, the viability is a read-out of living cells in per cent, often relative to untreated cells.
